Results on nine molecules are retold here after patent publication US7247645B2, “Dihydropyridine derivatives” (Ajinomoto Co., Inc., priority 1999, dated 2007).

Read-outs that look alike come from different tables or passages of the source.

The target in test [1] is T1, N-type calcium channel (Homo sapiens, UniProt Q00975). As to the kind of experiment: Antagonistic activity on N-type calcium channel (fluorescence dye method), IMR-32 cells, in presence of 1 μM Nifedipine. In kind it is cell-based. The note with it: 60 mM KCl stimulation, 0.1, 1 or 10 μM test compound, Table 9, read-out: N-type inhibition pIC50 (converted). The method, then: (§1) The medium used was a Phenol Red-free Eagle minimum essential medium (GIBCO) containing earle's salts supplement, 2 mM of L-glutamine (GIBCO), 1 mM of sodium pyruvate (pH 6.5) (GIBCO), antibiotic/antimicotic mixture (GIBCO) and 10% fetal calf serum (Cell Culture Technologies). 3 ml of 1×10^5/ml IMR-32 cells were spread on a glass dish (Iwaki Glass Co., Ltd.) having a diameter of 35 mm which was treated with poly-D-lysin (SIGMA) and collagen (COLLAGEN VITROGEN 100, Collagen Co.). After the culture for 2 days, 1 mM (final concentration) of dibutyl cAMP and 2.5 μM of bromodeoxyuridine (SIGMA) were added. After the culture for additional 10 to 14 days, the cells were subjected to the activity determination. The medium for IMR-32 cells thus prepared was replaced with 1 ml of Phenol Red-free Eagle minimum essential medium (GIBCO) containing […] 10 μM fura-2/AM (Dojin Kagaku, Co.) and earle's salts supplement, and the incubation was conducted at 25° C. for 1 hour.
(§2) Then the medium was replaced with Phenol Red-free Eagle minimum essential medium (GIBCO) containing earle's salts supplement, from which fura-2/AM had been removed. After the incubation at 37° C. for 1 hour, the medium was replaced with a recording medium (20 mM of HEPES-KOH, 115 mM of NaCl, 5.4 mM of KCl, 0.8 mM of MgCl2, 1.8 mM of CaCl2 and 13.8 mM of D-glucose). Antagonistic activity on N-type calcium channel was determined and analyzed by using a fluorescence microscope (Nikon Corporation) and an image analysis device ARGUS 50 (Hamamatsu Photonics). In particular, a recording medium (20 mM of HEPES-KOH, 115 mM of NaCl, 5.4 mM of KCl, 0.8 mM of MgCl2, 1.8 mM of CaCl2 and 13.8 mM of D-glucose) containing 1 μM of Nifedipine was given to the cells by reflux by a Y-tube method. Then a stimulating agent containing 60 mM of potassium chloride was rapidly given by the Y-tube method. Thereafter stimulating agents containing 60 mM of potassium chloride and 0.1, 1 or 10 μM of test compound were successively rapidly given by the Y-tube method to determine the antagonistic activity on the channel. Finally, a stimulating agent containing 60 mM of potassium chloride and 1 μM of omega conotoxin GVIA (Peptide institute, inc.) was rapidly given by the Y-tube method to realize a condition of 100% inhibition of N-type calcium channel.

Test [2] has as its target T1, N-type calcium channel. Briefly: N-type calcium channel antagonistic activity, changed procedure (calcium concentration change in IMR-32 cells, calculated from inhibition rates). In kind it is cell-based. The note with it: 60 mM KCl stimulation, Table 10, read-out: N-type inhibition pIC50 (converted). How it is done: as §1, §2
The same procedure as that of the above-described tests was repeated except for the following changes: 60 mM of potassium chloride-containing stimulating agent was rapidly given by the Y-tube method while the calcium concentration change in the cells was examined in terms of N-type calcium channel activity. Then Stimulating agents containing 60 mM of potassium chloride and 0.1, 1 or 10 μM of test compound were successively and rapidly given by the Y-tube method. A change in calcium concentration in the cells was determined.

The target in the next test is T2, L-type calcium channel (Rattus norvegicus, UniProt P22002).
T2 construct: The slips of thoracic aorta extracted from a Sprague-Dawry rat was used; from tissue; host or cells: rat (Sprague-Dawley) thoracic aorta rings, endothelium removed
Briefly: Antagonistic activity on L-type calcium channel: relaxation of KCl contraction of rat thoracic aorta samples. The note with it: High K+ (50 mM KCl) contraction. How it is done:
The activity of the dihydropyridine derivatives of the present invention to inhibit L-type calcium channel was determined by the following method in which the relaxation reaction on the KCl contraction of samples of thoracic aorta extracted from rats was employed.
1) Method of preparation of samples of thoracic aorta extracted from rats:
The slips of thoracic aorta extracted from a Sprague-Dawry rat was used. The blood vessels were cut to obtain ring-shaped samples having a width of about 3 mm. The endothelial cells of the blood vessel were mechanically removed. The samples were suspended in a strain gage in Tyrode's solution (158.3 mM of NaCl, 4.0 mM of KCl, 1.05 mM of MgCl2, 0.42 mM of NaH2PO4, 10 mM of NaHCO3, 2 mM of CaCl2 and 5 mM of glucose) in which a gaseous mixture of O2 (95%) and CO2 (5%) was introduced. A static tension of 2 g was applied hereto. The tension of the blood vessel was amplified with transducer and a tension amplifier (EF-601G; Nihon Koden Corporation) and recorded with a multi-pen recorder (Rikadenki Kogyo Co., Ltd.). The experiments were conducted at 37° C.
2) Determination of Relaxation After KCl Contraction:
After the tension had been stabilized, the nutrient solution in the sample tank was replaced with High K^+ Tyrode's solution (112.3 mM of NaCl, 50 mM of KCl, 1.05 mM of MgCl2, 0.42 mM of NaH2PO4, 10 mM of NaHCO3, 2 mM of CaCl2 and 5 mM of glucose) to conduct the contraction reaction. 30 minutes after, the solution in the sample tank was replaced with the normal Tyrode's solution. The solution in the sample tank was again replaced with the High K^+ Tyrode's solution and the contraction reaction was observed. After attaining the maximum contraction reaction, the test compound was cumulatively added at intervals of […] to attain concentrations of 10^−7, 10^−6 and 10^−5M. The rate of the test compound to control the maximum contraction reaction was employed as the index of the inhibition activity on L-type calcium channel.

The mark [3] stands for this setting: Table 9, read-out: L-type inhibition IC50.
[4] abbreviates: Table 10, read-out: L-type inhibition IC50.

T1 sequence (Q00975 whole entry): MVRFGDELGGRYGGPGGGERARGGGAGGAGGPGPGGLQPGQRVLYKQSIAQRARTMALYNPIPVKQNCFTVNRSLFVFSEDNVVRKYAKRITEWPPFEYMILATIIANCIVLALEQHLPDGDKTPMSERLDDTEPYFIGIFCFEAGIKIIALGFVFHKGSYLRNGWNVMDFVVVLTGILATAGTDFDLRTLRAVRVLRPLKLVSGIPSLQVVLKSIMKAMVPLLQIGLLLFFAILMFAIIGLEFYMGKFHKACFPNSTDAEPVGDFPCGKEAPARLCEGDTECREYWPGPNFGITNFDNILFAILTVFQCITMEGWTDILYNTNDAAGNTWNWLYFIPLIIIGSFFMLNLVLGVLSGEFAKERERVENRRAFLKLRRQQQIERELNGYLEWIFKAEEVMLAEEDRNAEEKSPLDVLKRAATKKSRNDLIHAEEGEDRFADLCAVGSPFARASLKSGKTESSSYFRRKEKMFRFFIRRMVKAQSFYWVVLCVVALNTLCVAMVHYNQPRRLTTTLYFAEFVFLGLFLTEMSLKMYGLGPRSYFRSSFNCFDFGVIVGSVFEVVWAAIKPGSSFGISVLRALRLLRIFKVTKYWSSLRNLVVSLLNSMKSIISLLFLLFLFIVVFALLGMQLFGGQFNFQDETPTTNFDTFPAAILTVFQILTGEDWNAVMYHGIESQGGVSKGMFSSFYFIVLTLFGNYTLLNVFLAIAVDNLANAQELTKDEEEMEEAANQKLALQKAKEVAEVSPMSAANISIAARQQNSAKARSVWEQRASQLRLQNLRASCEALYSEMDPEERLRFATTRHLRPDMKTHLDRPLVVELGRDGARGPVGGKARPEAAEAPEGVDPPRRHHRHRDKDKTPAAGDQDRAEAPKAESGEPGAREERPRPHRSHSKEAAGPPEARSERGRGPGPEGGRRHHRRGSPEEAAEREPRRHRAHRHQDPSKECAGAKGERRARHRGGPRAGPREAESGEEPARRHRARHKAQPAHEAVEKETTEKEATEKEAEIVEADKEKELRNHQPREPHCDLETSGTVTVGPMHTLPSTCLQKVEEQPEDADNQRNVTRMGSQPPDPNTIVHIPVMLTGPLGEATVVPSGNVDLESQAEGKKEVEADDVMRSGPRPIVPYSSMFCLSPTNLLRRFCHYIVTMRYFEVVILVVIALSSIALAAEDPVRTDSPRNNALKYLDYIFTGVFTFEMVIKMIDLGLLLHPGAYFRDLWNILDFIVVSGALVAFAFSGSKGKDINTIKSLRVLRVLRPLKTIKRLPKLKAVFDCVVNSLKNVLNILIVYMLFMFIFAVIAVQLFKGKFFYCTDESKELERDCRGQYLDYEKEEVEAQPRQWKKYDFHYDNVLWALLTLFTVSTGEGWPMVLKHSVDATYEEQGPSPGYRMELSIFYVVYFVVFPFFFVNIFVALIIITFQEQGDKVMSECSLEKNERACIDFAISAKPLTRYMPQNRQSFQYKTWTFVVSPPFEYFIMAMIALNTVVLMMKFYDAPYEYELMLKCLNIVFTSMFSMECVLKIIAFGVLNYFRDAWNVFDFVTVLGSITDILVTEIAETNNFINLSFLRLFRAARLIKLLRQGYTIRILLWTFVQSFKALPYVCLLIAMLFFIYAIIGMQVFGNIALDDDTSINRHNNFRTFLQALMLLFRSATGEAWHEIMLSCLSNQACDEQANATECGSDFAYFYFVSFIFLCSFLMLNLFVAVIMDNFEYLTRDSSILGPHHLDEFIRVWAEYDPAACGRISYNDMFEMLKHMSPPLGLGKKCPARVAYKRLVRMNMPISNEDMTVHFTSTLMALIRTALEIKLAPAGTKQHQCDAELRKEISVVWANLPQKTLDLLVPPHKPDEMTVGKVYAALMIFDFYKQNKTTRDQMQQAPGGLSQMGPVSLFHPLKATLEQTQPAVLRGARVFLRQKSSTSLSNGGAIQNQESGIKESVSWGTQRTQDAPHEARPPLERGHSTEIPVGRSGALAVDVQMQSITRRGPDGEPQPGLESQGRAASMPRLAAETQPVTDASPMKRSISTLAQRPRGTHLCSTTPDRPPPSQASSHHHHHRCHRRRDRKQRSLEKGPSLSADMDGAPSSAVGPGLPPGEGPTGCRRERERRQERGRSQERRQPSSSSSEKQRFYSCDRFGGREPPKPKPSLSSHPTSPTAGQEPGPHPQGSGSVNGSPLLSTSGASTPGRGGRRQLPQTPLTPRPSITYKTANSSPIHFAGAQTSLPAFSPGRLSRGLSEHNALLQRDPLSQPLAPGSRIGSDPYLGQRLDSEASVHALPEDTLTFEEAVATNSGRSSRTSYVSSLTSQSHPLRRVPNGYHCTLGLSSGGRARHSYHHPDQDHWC
T1 sequence (P54289 25-1103 partner): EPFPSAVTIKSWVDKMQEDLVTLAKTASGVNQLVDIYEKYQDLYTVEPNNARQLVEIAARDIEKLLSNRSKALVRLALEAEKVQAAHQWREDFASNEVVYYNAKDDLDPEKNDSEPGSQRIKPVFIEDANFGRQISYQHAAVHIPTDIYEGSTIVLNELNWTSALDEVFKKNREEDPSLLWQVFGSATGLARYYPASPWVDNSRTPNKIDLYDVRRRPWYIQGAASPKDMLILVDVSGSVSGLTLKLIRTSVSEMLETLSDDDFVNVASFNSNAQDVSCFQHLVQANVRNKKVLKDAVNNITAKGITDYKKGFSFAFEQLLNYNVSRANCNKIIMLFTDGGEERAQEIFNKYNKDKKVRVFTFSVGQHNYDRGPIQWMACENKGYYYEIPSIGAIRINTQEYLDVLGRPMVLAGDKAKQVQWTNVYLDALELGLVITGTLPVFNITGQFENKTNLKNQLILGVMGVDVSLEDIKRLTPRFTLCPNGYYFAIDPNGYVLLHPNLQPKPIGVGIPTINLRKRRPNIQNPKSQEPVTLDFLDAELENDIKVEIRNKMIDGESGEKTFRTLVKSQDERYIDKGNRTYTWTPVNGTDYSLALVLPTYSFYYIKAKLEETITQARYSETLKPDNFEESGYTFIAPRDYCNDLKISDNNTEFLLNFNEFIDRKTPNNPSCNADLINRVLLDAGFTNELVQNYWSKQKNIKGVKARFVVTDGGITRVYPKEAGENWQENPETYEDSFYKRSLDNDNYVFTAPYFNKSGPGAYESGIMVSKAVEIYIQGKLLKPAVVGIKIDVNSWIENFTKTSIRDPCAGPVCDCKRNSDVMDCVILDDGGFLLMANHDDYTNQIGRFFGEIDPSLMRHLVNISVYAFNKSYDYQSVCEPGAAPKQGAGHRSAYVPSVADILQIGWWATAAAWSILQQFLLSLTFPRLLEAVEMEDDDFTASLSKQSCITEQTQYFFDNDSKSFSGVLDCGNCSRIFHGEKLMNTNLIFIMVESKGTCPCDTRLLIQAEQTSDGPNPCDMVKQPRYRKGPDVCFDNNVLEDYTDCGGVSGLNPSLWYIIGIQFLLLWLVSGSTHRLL
T1 sequence (P54284 whole entry partner): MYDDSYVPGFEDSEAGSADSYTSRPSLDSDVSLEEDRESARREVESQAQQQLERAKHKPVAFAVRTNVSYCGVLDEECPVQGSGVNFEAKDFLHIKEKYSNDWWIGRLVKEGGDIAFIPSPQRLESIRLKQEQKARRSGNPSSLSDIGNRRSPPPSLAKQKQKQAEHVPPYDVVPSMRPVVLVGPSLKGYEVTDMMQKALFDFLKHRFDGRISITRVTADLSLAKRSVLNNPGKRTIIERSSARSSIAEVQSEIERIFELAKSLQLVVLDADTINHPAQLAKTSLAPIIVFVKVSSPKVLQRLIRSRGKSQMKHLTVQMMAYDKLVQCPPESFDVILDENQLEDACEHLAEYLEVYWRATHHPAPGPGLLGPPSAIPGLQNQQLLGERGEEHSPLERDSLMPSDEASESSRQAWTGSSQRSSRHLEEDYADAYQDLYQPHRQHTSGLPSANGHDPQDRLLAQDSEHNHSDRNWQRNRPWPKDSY

Turning to `CC1=C(C(=O)O)C(c2cccc(Cl)c2)C(C(=O)OCCC(c2ccccc2)c2ccccc2)=C(COCCN2CCCCC2)N1` (stereo not shown) [Example 12, 5-(3,3-diphenylpropane-1-yl)4-(3-chlorophenyl)-2-methyl-6-(2-piperidine-1-yl-ethoxymethyl)-1,4-dihydropyridine-3,5-dicarboxylate], the IC50 at N-type calcium channel [1] is 1.58 µM; on N-type calcium channel [2] it was 3.98 µM; at L-type calcium channel (setting [3]), 2.69 µM.
As to `COCC1=C(C(=O)OCCC(c2ccccc2)c2ccccc2)C(c2cccc(Cl)c2)C(C(=O)O)=C(C)N1` (stereo not shown) [Example 14, 3-(3,3-diphenylpropane-1-yl)4-(3-chlorophenyl)-2-methoxymethyl-6-methyl-1,4-dihydropyridine-3,5-dicarboxylate], the IC50 was 1.2 µM at N-type calcium channel [1], 2 µM on N-type calcium channel [2], 4.28 µM on L-type calcium channel (setting [3]) and 4.27 µM at L-type calcium channel (setting [4]).
Take `CC1=C(C(=O)OCCC(c2ccccc2)c2ccccc2)C(c2cccc(Cl)c2)C(C(=O)N2CCN(C(=O)OC(C)(C)C)CC2)=C(C)N1` (stereo not shown) [Example 15, t-butyl 4-(4-(3-chlorophenyl)-5-(3,3-diphenylpropoxycarbonyl)-2,6-dimethyl-1,4-dihydropyridine-3-carbonyl)piperazine-1-carboxylate]: the IC50 at N-type calcium channel [1] was 0.372 µM; on L-type calcium channel (setting [3]), 20.8 µM.
Take `CC1=C(C(=O)O)C(c2cccc(Cl)c2)C(C(=O)OCCC(c2ccccc2)c2ccccc2)=C(COCCO)N1` (stereo not shown) [Example 20, 3-(3,3-diphenylpropane-1-yl)4-(3-chlorophenyl)-2-(2-hydroxyethoxymethyl)-6-methyl-1,4-dihydropyridine-3,5-dicarboxylate]: the IC50 at N-type calcium channel [1] is 1.78 µM; on N-type calcium channel [2] it was 3.16 µM; on L-type calcium channel (setting [3]) it was 2.78 µM; at L-type calcium channel (setting [4]), 2.88 µM.
In the case of `CC1=C(C(=O)OCCC(c2ccccc2)c2ccccc2)C(c2cccc(Cl)c2)C(C(=O)O)=C(COCCN2CCCCC2)N1` (stereo not shown) [Example 23, 3-(3,3-diphenylpropane-1-yl)4-(3-chlorophenyl)-2-methyl-6-(2-(piperidine-1-yl)ethoxymethyl)-1,4-dihydropyridine-3,5-dicarboxylate], the IC50 at N-type calcium channel [1] was 1.2 µM; on N-type calcium channel [2] it was 1.58 µM; on L-type calcium channel (setting [3]), 1.8 µM; on L-type calcium channel (setting [4]) it was 1.82 µM.
Consider `CC1=C(C(=O)O)C(c2cccc(Cl)c2)C(C(=O)OCCC(c2ccccc2)c2ccccc2)=C(COCCc2cccnc2)N1` (stereo not shown) [Example 33, 5-(3,3-diphenyl-1-propyl)4-(3-chlorophenyl)-2-methyl-6-(2-(3-pyridine)ethoxy)methyl-1,4-dihydropyridine-3,5-dicarboxylate], for which the IC50 on N-type calcium channel [2] is 1.58 µM; at L-type calcium channel (setting [4]), 1.7 µM.
For the molecule `CC1=C(C(=O)O)C(c2cccc(Cl)c2)C(C(=O)OCCC(c2ccccc2)c2ccccc2)=C(COCCc2ccncc2)N1` (stereo not shown) [Example 54, 5-(3,3-diphenylpropyl)4-(3-chlorophenyl)-2-methyl-6-(2-[pyridine-4-yl]ethoxymethyl)-1,4-dihydropyridine-3,5-dicarboxylate], the values for the IC50 at N-type calcium channel [2] and on L-type calcium channel (setting [4]) were 2 µM and 1.58 µM, respectively.
In the case of `CC1=C(C(=O)O)C(c2cccc(Cl)c2)C(C(=O)OCCC(c2ccccc2)c2ccccc2)=C(C(F)(F)F)N1` (stereo not shown) [Example 57, 5-(3,3-diphenylpropyl)4-(3-chlorophenyl)-2-methyl-6-trifluoromethyl-1,4-dihydropyridine-3,5-dicarboxylate], the IC50 on N-type calcium channel [2] is 1.58 µM; at L-type calcium channel (setting [4]) it was 1.78 µM.
As to `COC(OC)C1=C(C(=O)OCCC(c2ccccc2)c2ccccc2)C(c2cccc(Cl)c2)C(C(=O)O)=C(C)N1` (stereo not shown) [Example 60, 3-(3,3-diphenylpropyl)4-(3-chlorophenyl)-2-dimethoxymethyl-6-methyl-1,4-dihydropyridine-3,5-dicarboxylate], the values for the IC50 on N-type calcium channel [2] and on L-type calcium channel (setting [4]) were 1.58 µM and 3.89 µM, respectively.
